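These data come from cells grown in 96-well plates and exposed to compound for 48 hours at five concentrations. The concentration for 50% growth inhibition is given as GI50. TGI: concentration producing complete growth inhibition.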
Assays:
Assay in all cases: growth of human tumour cells (NCI), 48 h
[1] = tested on: HOP-92 NSCLC
[2] = tested on: MOLT-4 leukemia
[3] = tested on: BT-549 breast
[4] = tested on: NCI-H522 lung
[5] = tested on: PC-3 prostate
[6] = tested on: OVCAR-3 ovarian
[7] = tested on: A549 NSCLC
[8] = tested on: LOX IMVI melanoma
[9] = tested on: OVCAR-4 ovarian
[10] = tested on: SK-MEL-5 melanoma
[11] = tested on: MDA-MB-435
[12] = tested on: UACC-257 melanoma
[13] = tested on: SK-MEL-2 melanoma
[14] = tested on: CAKI-1 renal
[15] = tested on: A498 renal
[16] = tested on: UACC-62 melanoma
[17] = tested on: MDA-MB-231 breast
[18] = tested on: OVCAR-8 ovarian
[19] = tested on: COLO 205 colon
[20] = tested on: SF-539 CNS
[21] = tested on: HOP-62 NSCLC
[22] = tested on: HCC-2998 colon
[23] = tested on: SK-OV-3 ovarian
[24] = tested on: TK-10 renal
[25] = tested on: KM12 colon
[26] = tested on: CCRF-CEM leukemia
[27] = tested on: U251 CNS
[28] = tested on: IGROV1 ovarian
[29] = tested on: SK-MEL-28 melanoma
[30] = tested on: RPMI-8226 leukemia
[31] = tested on: SN12C renal
[32] = tested on: M14 melanoma
[33] = tested on: EKVX NSCLC
[34] = tested on: HCT-15 colon
[35] = tested on: HCT-116 colon
[36] = tested on: SNB-19 CNS
[37] = tested on: HT29 colon
[38] = tested on: RXF 393 renal
[39] = tested on: T-47D breast
[40] = tested on: DU-145 prostate
[41] = tested on: UO-31 renal
[42] = tested on: ACHN renal
[43] = tested on: K-562 leukemia
[44] = tested on: SW-620 colon
[45] = tested on: MALME-3M melanoma
[46] = tested on: SNB-75 CNS
[47] = tested on: HL-60(TB) leukemia
[48] = tested on: NCI-H460 lung
[49] = tested on: NCI-H23 lung
[50] = tested on: SF-268 CNS
[51] = tested on: HS 578T breast
[52] = tested on: SR leukemia
[53] = tested on: OVCAR-5 ovarian
[54] = tested on: NCI-H226 lung
[55] = tested on: 786-0 renal
[56] = tested on: NCI/ADR-RES ovarian
[57] = tested on: MCF7 breast
[58] = tested on: SF-295 CNS

`ClCc1ccc(-c2ccc(Cn3cnc4nc(Cl)nc(Cl)c43)cc2)cc1` gave a GI50 [1] of 3.82 µM, a TGI [1] of 8.78 µM and a GI50 [2] of 3.36 µM. It also gave a TGI [2] of 10.9 µM, a GI50 [3] of 2.72 µM and a TGI [3] of 6.59 µM. The GI50 [4] was 12 µM, the TGI [4] was 36.4 µM and the GI50 [5] was 4.71 µM. For the same compound, the TGI [5] was 16.7 µM, the GI50 [6] was 2.19 µM and the TGI [6] was 4.59 µM. The GI50 [7] was 3.53 µM, the TGI [7] was greater than 100 µM and the GI50 [8] was 1.86 µM. It also gave a TGI [8] of 3.3 µM, a GI50 [9] of 15 µM and a TGI [9] of 28.3 µM. It also gave a GI50 [10] of 4.55 µM, a TGI [10] of 16.5 µM and a GI50 [11] of 5.25 µM. For the same compound, the TGI [11] was 20.7 µM, the GI50 [12] was 3.04 µM and the TGI [12] was 9.88 µM. It also gave a GI50 [13] of 7.9 µM, a TGI [13] of 21.2 µM and a GI50 [14] of 2.21 µM. It also gave a TGI [14] of 4.99 µM, a GI50 [15] of 17.7 µM and a TGI [15] of 32 µM. For the same compound, the GI50 [16] was 4.13 µM, the TGI [16] was 14.4 µM and the GI50 [17] was 11.1 µM. It also gave a TGI [17] of 23.7 µM, a GI50 [18] of 2.41 µM and a TGI [18] of 6.52 µM. For the same compound, the GI50 [19] was 4.02 µM, the TGI [19] was 18.2 µM and the GI50 [20] was 2.3 µM. It also gave a TGI [20] of 5.06 µM, a GI50 [21] of 13.5 µM and a TGI [21] of 48.8 µM. It also gave a GI50 [22] of 4.63 µM, a TGI [22] of 21.7 µM and a GI50 [23] of 19.7 µM. For the same compound, the TGI [23] was 33.9 µM, the GI50 [24] was 6.88 µM and the TGI [24] was 20.4 µM. It also gave a GI50 [25] of 3.69 µM, a TGI [25] of 12.8 µM and a GI50 [26] of 2.16 µM. It also gave a TGI [26] of 4.86 µM, a GI50 [27] of 3.82 µM and a TGI [27] of 11.3 µM. The GI50 [28] was 14.3 µM, the TGI [28] was 34.8 µM and the GI50 [29] was 2.38 µM. The TGI [29] was 5.16 µM, the GI50 [30] was 3.81 µM and the TGI [30] was 27.9 µM. The GI50 [31] was 3.06 µM, the TGI [31] was 12.3 µM and the GI50 [32] was 18.7 µM. It also gave a TGI [32] of 36.8 µM, a GI50 [33] of 15.9 µM and a TGI [33] of 29.5 µM. The GI50 [34] was 3.9 µM, the TGI [34] was 13.9 µM and the GI50 [35] was 3.85 µM. For the same compound, the TGI [35] was 13.4 µM, the GI50 [36] was 4.58 µM and the TGI [36] was 15.2 µM. It also gave a GI50 [37] of 3.54 µM, a TGI [37] of 12.4 µM and a GI50 [38] of 2.5 µM. For the same compound, the TGI [38] was 5 µM, the GI50 [39] was 7.03 µM and the TGI [39] was 49.3 µM. For the same compound, the GI50 [40] was 2.71 µM, the TGI [40] was 7.6 µM and the GI50 [41] was 16.7 µM. The TGI [41] was 34.1 µM, the GI50 [42] was 5.36 µM and the TGI [42] was 17 µM. For the same compound, the GI50 [43] was 5.59 µM, the TGI [43] was 44.1 µM and the GI50 [44] was 2.22 µM. For the same compound, the TGI [44] was 4.75 µM, the GI50 [45] was 3.33 µM and the TGI [45] was 7.88 µM. The GI50 [46] was 4.5 µM, the TGI [46] was 15.2 µM and the GI50 [47] was 12.3 µM. For the same compound, the TGI [47] was greater than 100 µM, the GI50 [48] was 7.85 µM and the TGI [48] was 24.6 µM. The GI50 [49] was 7.32 µM, the TGI [49] was 24.3 µM and the GI50 [50] was 3.6 µM. The TGI [50] was 15.2 µM, the GI50 [51] was 5.81 µM and the TGI [51] was 40.7 µM. It also gave a GI50 [52] of 2.39 µM, a TGI [52] of 7.46 µM and a GI50 [53] of 19.6 µM. It also gave a TGI [53] of 36 µM, a GI50 [54] of 13.8 µM and a TGI [54] of 26.7 µM. For the same compound, the GI50 [55] was 17.1 µM, the TGI [55] was 31.7 µM and the GI50 [56] was 3.97 µM. The TGI [56] was 70.4 µM, the GI50 [57] was 3.18 µM and the TGI [57] was 10.8 µM. For the same compound, the GI50 [58] was 14.2 µM and the TGI [58] was 30.7 µM.

Source: PubChem BioAssay (NCI)
